From ChEMBL document CHEMBL5331046, “Disulfiram and dithiocarbamate analogues demonstrate promising antischistosomal effects” (Eur J Med Chem, 2022)
Calls of active or inactive are those of the source. No cut-off for these calls is given here.

Key:
[1] = tested on: Schistosoma mansoni; assay: Antischistosomal activity against Schistosoma mansoni couples assessed as reduction in pairing stability at 100 uM measured upto 72 hrs by bright field microscopy; type: functional
[2] = tested on: Schistosoma mansoni; assay: Antischistosomal activity against Schistosoma mansoni couples assessed as inhibition of eggs production at 100 uM measured upto 72 hrs by bright field microscopy; type: functional
[3] = tested on: Schistosoma mansoni; assay: Antischistosomal activity against Schistosoma mansoni couples assessed as decrease in parasite motility at 15 uM measured upto 72 hrs by bright field microscopy; type: functional
[4] = tested on: Schistosoma mansoni; assay: Antischistosomal activity against Schistosoma mansoni couples assessed as decrease in parasite motility at 50 uM measured upto 72 hrs by bright field microscopy; type: functional
[5] = tested on: Schistosoma mansoni; assay: Antischistosomal activity against Schistosoma mansoni couples at 100 uM measured upto 72 hrs by bright field microscopy; type: functional, organism-based
[6] = tested on: Schistosoma mansoni; assay: Antischistosomal activity against Schistosoma mansoni couples assessed as decrease in parasite motility at 100 uM measured upto 72 hrs by bright field microscopy; type: functional
[7] = tested on: Schistosoma mansoni; assay: Antischistosomal activity against Schistosoma mansoni couples assessed as decrease in parasite motility at 25 uM measured upto 72 hrs by bright field microscopy; type: functional; set-up: scale not given: the % may be the effect or the level left
[8] = tested on: Schistosoma mansoni; assay: Antischistosomal activity against Schistosoma mansoni couples assessed as induction of weak phenotypes at 25 uM measured upto 72 hrs by bright field microscopy; type: functional, organism-based
[9] = tested on: Schistosoma mansoni; assay: Antischistosomal activity against Schistosoma mansoni couples at 25 uM measured upto 72 hrs by bright field microscopy; type: functional, organism-based
[10] = tested on: Schistosoma mansoni; assay: Antischistosomal activity against Schistosoma mansoni couples at >=50 uM measured upto 72 hrs by bright field microscopy; type: functional, organism-based
[11] = tested on: Schistosoma mansoni; assay: Antischistosomal activity against Schistosoma mansoni couples assessed as decrease in parasite motility at 10 uM measured upto 72 hrs by bright field microscopy; type: functional, organism-based
[12] = tested on: Schistosoma mansoni; assay: Antischistosomal activity against Schistosoma mansoni couples assessed as decrease in parasite vitality at 15 uM measured upto 72 hrs by bright field microscopy; type: functional; set-up: scale not given: the % may be the effect or the level left
[13] = tested on: Schistosoma mansoni; assay: Antischistosomal activity against Schistosoma mansoni couples assessed as decrease in pairing stability at 15 uM measured upto 72 hrs by bright field microscopy; type: functional; set-up: scale not given: the % may be the effect or the level left
[14] = tested on: Schistosoma mansoni; assay: Antischistosomal activity against Schistosoma mansoni couples assessed as inhibition of eggs production at 15 uM measured upto 72 hrs by bright field microscopy; type: functional; set-up: scale not given: the % may be the effect or the level left
[15] = tested on: Schistosoma mansoni; assay: Antischistosomal activity against Schistosoma mansoni couples assessed as induction of phenotypes at 10 uM measured upto 72 hrs by bright field microscopy; type: functional, organism-based
[16] = tested on: Schistosoma mansoni; assay: Antischistosomal activity against Schistosoma mansoni couples assessed as inhibition of eggs production at 50 uM measured upto 72 hrs by bright field microscopy; type: functional, organism-based
[17] = tested on: Schistosoma mansoni; assay: Antischistosomal activity against Schistosoma mansoni couples assessed as reduction in pairing stability at 50 uM measured upto 72 hrs by bright field microscopy; type: functional, organism-based
[18] = tested on: Schistosoma mansoni; assay: Antischistosomal activity against Schistosoma mansoni couples assessed as gut dilations at 50 uM measured upto 72 hrs by bright field microscopy; type: functional, organism-based
[19] = tested on: Schistosoma mansoni; assay: Antischistosomal activity against Schistosoma mansoni couples assessed as tegument damage at 50 uM measured upto 72 hrs by bright field microscopy; type: functional, organism-based
[20] = tested on: Schistosoma mansoni; assay: Antischistosomal activity against Schistosoma mansoni couples assessed as intestinal dilations and tegument damage at 50 uM measured upto 72 hrs by bright field microscopy; type: functional, organism-based
[21] = tested on: Schistosoma mansoni; assay: Antischistosomal activity against Schistosoma mansoni couples assessed as pairing instability at 50 uM measured upto 72 hrs by bright field microscopy; type: functional
[22] = tested on: Schistosoma mansoni; assay: Antischistosomal activity against Schistosoma mansoni couples assessed as tegument damage upto 100 uM measured upto 72 hrs by bright field microscopy; type: functional, organism-based
[23] = tested on: HepG2; assay: Cytotoxicity against human HepG2 cells assessed as reduction in cell viability upto 100 uM by WST-1 assay; type: toxicity, cell-based; conditions: hepg2, 100 µM
[24] = tested on: LS174T; assay: Cytotoxicity against human LS174T cells assessed as reduction in cell vaibility upto 100 uM by WST-1 assay; type: toxicity, cell-based
[25] = tested on: Schistosoma mansoni; assay: Antischistosomal activity against Schistosoma mansoni couples assessed as gut dilations at 100 uM measured upto 72 hrs by bright field microscopy; type: functional, organism-based
[26] = tested on: Schistosoma mansoni; assay: Antischistosomal activity against Schistosoma mansoni couples assessed as eggs deformation at 100 uM measured upto 72 hrs by bright field microscopy; type: functional
[27] = tested on: HepG2; assay: Cytotoxicity against human HepG2 cells assessed as reduction in cell vaibility at 100 uM by WST-1 assay; type: toxicity, cell-based; conditions: hepg2, 100 µM
[28] = tested on: LS174T; assay: Cytotoxicity against human LS174T cells assessed as reduction in cell viability at 100 uM by WST-1 assay; type: toxicity, cell-based
[29] = tested on: Schistosoma mansoni; assay: Antischistosomal activity against Schistosoma mansoni couples assessed as decrease in parasite vitality at 10 uM measured upto 72 hrs by bright field microscopy; type: functional
[30] = tested on: Schistosoma mansoni; assay: Antischistosomal activity against Schistosoma mansoni couples assessed as inhibition of eggs production at 10 uM measured upto 72 hrs by bright field microscopy; type: functional, organism-based
[31] = tested on: Schistosoma mansoni; assay: Antischistosomal activity against Schistosoma mansoni couples assessed as reduction in pairing stability at 10 uM measured upto 72 hrs by bright field microscopy; type: functional, organism-based
[32] = tested on: HepG2; assay: Cytotoxicity against human HepG2 cells assessed as reduction in cell vaibility at 25 uM by WST-1 assay; type: toxicity, cell-based; conditions: hepg2, 25 µM
[33] = tested on: LS174T; assay: Cytotoxicity against human LS174T cells assessed as reduction in cell vaibility at 25 uM by WST-1 assay; type: toxicity, cell-based
[34] = tested on: Schistosoma mansoni; assay: Antischistosomal activity against Schistosoma mansoni couples assessed as tegument damage at 100 uM measured upto 72 hrs by bright field microscopy; type: functional, organism-based

S=C(SCc1ccccc1)n1ccnc1
Activity [1]: Active | Activity [2]: Active

O=[N+]([O-])c1ccc(CSC(=S)N2CCN(S(=O)(=O)c3cccc4ccccc34)CC2)cc1
Activity [3]: inactive

CCN(CC)C(=S)SCCC1OCCCO1
Activity [4]: inactive

CCC(CC)C(=S)SCc1ccccc1
Activity [5]: Active

CCN(CC)C(=S)SCCc1ccccc1
Activity [1]: 100% | Activity [2]: 100% | Activity [6]: inactive

Cl.N[C@@H](CO)C(=O)N1CCN(C(=S)SCc2ccc([N+](=O)[O-])cc2)CC1
Activity [7]: 30% | Activity [8]: Active

CCN(CC)C(=S)SCCCCCc1ccccc1
Activity [1]: inactive | Activity [2]: Active

O=C(c1ccco1)N1CCN(C(=S)SCc2ccc([N+](=O)[O-])cc2)CC1
Activity [9]: inactive

CCN(CC)C(=S)SCc1ccc(C(=O)O)cc1
Activity [5]: inactive

CN1CCN(C(=S)SCc2ccccc2)CC1
Activity [10]: Active

S=C(SCc1ccccc1)N1CCCCC1
Activity [1]: Active | Activity [2]: Active

O=[N+]([O-])c1ccc(CSC(=S)N2CCN(S(=O)(=O)C3CC3)CC2)cc1
Activity [11]: Active | Activity [3]: 50% | Activity [12]: 90% | Activity [13]: 20% | Activity [14]: 40% | Activity [15]: Active

CCN(CC)C(=S)SC(c1ccccc1)c1ccccc1
Activity [1]: Active

CCN(CC)/C(=N/C#N)NCc1ccccc1
Activity [5]: inactive

Cc1ccc(CN2CCN(C(=S)SCc3ccccc3)CC2)cc1
Activity [5]: Active

CCN(CC)C(=S)SCc1ccc(C#N)cc1
Activity [7]: Active | Activity [16]: Active | Activity [17]: Active | Activity [18]: Active | Activity [19]: Active | Activity [20]: Active

CCN(CC)C(=S)SCc1ccc(-c2ccccc2)cc1
Activity [2]: Active

CCN(CC)C(=S)SCCC1OCCO1
Activity [6]: inactive | Activity [21]: inactive

CCS(=O)(=O)N1CCN(C(=S)SCc2ccc([N+](=O)[O-])cc2)CC1
Activity [11]: inactive | Activity [3]: 50% | Activity [12]: 90% | Activity [13]: 20% | Activity [14]: 40% | Activity [15]: inactive

CCN(CC)C(=S)SCc1cccc2ccccc12
Activity [4]: ~30%

CCCCCCN(CCCCCC)C(=S)SCc1ccccc1
Activity [5]: inactive

CCN(CC)C(=S)NCc1ccccc1
Activity [5]: inactive

CCN(CC)C(=S)CCc1ccccc1
Activity [5]: inactive

CCN(CC)C(=S)SCCC1SCCS1
Activity [6]: >60% | Activity [21]: >90% | Activity [22]: Active | Activity [23]: Non-Toxic | Activity [24]: Non-Toxic

CCN(CC)C(=S)SCCc1c[nH]c2ccccc12
Activity [6]: inactive | Activity [25]: Active

CCN(CC)C(=S)SCC(=O)O
Activity [1]: Active

S=C(SCc1ccccc1)N1CCN(/C=C/c2ccccc2)CC1
Activity [5]: inactive

CCN(CC)C(=S)SCCN1CCOCC1
Activity [1]: inactive | Activity [26]: Active

CCN1CCN(C(=S)SCc2ccccc2)CC1
Activity [10]: Active

CCCN1CCN(C(=S)SCc2ccccc2)CC1
Activity [10]: Active

CCN(CC)C(=S)SCCCCc1ccccc1
Activity [1]: inactive | Activity [2]: Active

CCN(CC)C(=S)SC [METHYLDIETHYL CARBAMODITHIOATE]
Activity [27]: Non-Toxic | Activity [28]: Non-Toxic | Activity [5]: inactive

CSCC[C@H](N)C(=O)N1CCN(C(=S)SCc2ccc([N+](=O)[O-])cc2)CC1.Cl
Activity [7]: 60% | Activity [11]: inactive | Activity [29]: Active | Activity [8]: Active | Activity [30]: Active | Activity [31]: Active | Activity [32]: Toxic | Activity [33]: Toxic

CCN(CC)C(=O)OCc1ccccc1
Activity [26]: ~100%

CCN(CC)C(=S)SCCCc1ccccc1
Activity [1]: 100% | Activity [2]: 100% | Activity [6]: inactive

CCN(CC)C(=S)SCc1ccncc1
Activity [5]: inactive

CCN(CC)C(=O)SCc1ccccc1
Activity [2]: ~90%

S=C(SCc1ccccc1)N1CCN(c2ncccn2)CC1
Activity [5]: Active

CCC(CC)C(=O)SCc1ccccc1
Activity [5]: Active

CCN(CC)C(=S)SCC(=O)OC
Activity [1]: Active

CCN(CC)C(=S)S/C=C/c1ccccc1
Activity [34]: Active

CCN(CC)C(=S)SCC(N)=O
Activity [1]: Active

CCN(CC)C(=S)OCc1ccccc1
Activity [1]: 50% | Activity [2]: 100%

CC(=O)N1CCN(C(=S)SCc2ccc([N+](=O)[O-])cc2)CC1
Activity [9]: inactive

S=C(SCc1ccccc1)N1CCCc2ccccc21
Activity [5]: inactive

CN(C)C(=S)SCc1ccccc1
Activity [1]: Active | Activity [26]: Active

S=C(SCc1ccccc1)N1CCc2ccccc2C1
Activity [5]: inactive

CCN(CC)C(=S)Sc1ccccc1
Activity [1]: inactive | Activity [2]: Active

S=C(SCc1ccccc1)n1cnnc1
Activity [5]: inactive

CCN(CC)C(=S)SCc1ccc2ccccc2c1
Activity [4]: >50% | Activity [16]: Active | Activity [27]: Non-Toxic | Activity [28]: Non-Toxic | Activity [17]: Active

CCCCS(=O)(=O)N1CCN(C(=S)SCc2ccc([N+](=O)[O-])cc2)CC1
Activity [11]: Active | Activity [3]: 50% | Activity [12]: 90% | Activity [13]: 20% | Activity [14]: 40% | Activity [15]: Active

CCCCCN(CCCCC)C(=S)SCc1ccccc1
Activity [5]: inactive

O=C(C1CC1)N1CCN(C(=S)SCc2ccc([N+](=O)[O-])cc2)CC1
Activity [9]: inactive

Cl.N[C@@H](Cc1ccc(O)cc1)C(=O)N1CCN(C(=S)SCc2ccc([N+](=O)[O-])cc2)CC1
Activity [7]: 30% | Activity [8]: Active

CCN(CC)C(=S)SCc1ccc(C)cc1
Activity [23]: Non-Toxic | Activity [24]: Non-Toxic
